Experimental data: paper PMC7893793 (ACS Omega, 2021)

Key:
[1] = Pharmacokinetic study in rats after oral administration of PbR extract; type: in vivo, rat; details: for AUC(0-inf) / AUC(0-t) / Cmax / MRT inf / MRT last / Tmax / half-life: male, Wistar, plasma, po, 5 g/kg; for AUC(0-inf) / AUC(0-t) / Cmax / MRT inf / MRT last / Tmax / half-life / absorption characteristics: rat; for absorption characteristics: oral administration of PbR
[2] = Stability of analytes in rat plasma samples; type: in vitro ADME; details: three freeze–thaw (−80 °C–room temperature) cycles, low, medium and high QC samples

Row | AUC(0-inf) [1] [ng·h/mL] | AUC(0-t) [1] [ng·h/mL] | Cmax [1] [ng/mL] | MRT inf [1] [h] | MRT last [1] [h] | Tmax [1] [h] | half-life [1] [h] | absorption characteristics [1] | freeze–thaw stability in plasma samples [2] | detection in rat plasma ([1]; after oral administration of PbR at a dose of 0.5 g/100 g) | SMILES
1 | 63.2 ± 17.4 | 55.1 ± 15.5 | 24.4 ± 8.4 | 4.65 ± 1.43 | 3.12 ± 0.64 | 0.33 ± 0.13 | 3.33 ± 1.21 | good absorption characteristics | No significant degradation | – | COC(=O)C1=CO[C@@H](O[C@@H]2O[C@H](CO)[C@@H](O)[C@H](O)[C@H]2O)[C@H]2[C@@H]1[C@H](O)C[C@]2(C)OC(C)=O [barlerin]
2 | 159 ± 34.2 | 141 ± 33.4 | 41.6 ± 13.8 | 5.28 ± 0.73 | 3.84 ± 0.61 | 0.7 ± 0.14 | 3.59 ± 1.05 | good absorption characteristics | No significant degradation | – | COC(=O)C1=CO[C@@H](O[C@@H]2O[C@H](CO)[C@@H](O)[C@H](O)[C@H]2O)[C@H]2[C@@H]1[C@H](O)C[C@]2(C)O [shanzhiside methyl ester]
3 | – | – | – | – | – | – | – | – | – | neither of these were detected | C[C@@H]1O[C@@H](O[C@@H]2[C@@H](O)[C@H](OCCc3ccc(O)c(O)c3)O[C@H](COC(=O)/C=C/c3ccc(O)c(O)c3)[C@H]2O)[C@H](O)[C@H](O)[C@H]1O [isoacteoside]
